The source of these data is US11304929B2, “Tosylacetate based compounds and derivatives thereof as PHGDH inhibitors” (priority 2017, dated 2022).

PHGDH, sequence (O43175 2-533 limits assumed): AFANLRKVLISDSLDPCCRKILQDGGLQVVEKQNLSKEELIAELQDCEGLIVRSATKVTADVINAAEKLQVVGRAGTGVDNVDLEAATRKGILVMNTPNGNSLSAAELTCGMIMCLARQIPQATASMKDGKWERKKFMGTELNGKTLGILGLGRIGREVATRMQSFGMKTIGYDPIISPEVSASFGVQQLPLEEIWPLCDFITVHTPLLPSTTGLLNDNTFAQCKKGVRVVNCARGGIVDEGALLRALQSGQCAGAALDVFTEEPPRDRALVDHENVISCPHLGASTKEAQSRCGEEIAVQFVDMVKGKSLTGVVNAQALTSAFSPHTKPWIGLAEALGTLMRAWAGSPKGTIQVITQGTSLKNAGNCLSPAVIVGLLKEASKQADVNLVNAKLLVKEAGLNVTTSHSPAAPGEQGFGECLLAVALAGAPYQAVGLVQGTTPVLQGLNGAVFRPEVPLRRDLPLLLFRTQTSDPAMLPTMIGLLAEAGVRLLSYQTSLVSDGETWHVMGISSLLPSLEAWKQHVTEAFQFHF

The first test addresses PHGDH (Homo sapiens (Human), UniProt O43175). As to the kind of experiment: 3-Phosphoglycerate Dehydrogenase (PHGDH) Fluorescence Intensity Assay, run at two NAD/3-PG ratios: PHGDH_HIGH_NAD/3-PG (250 μM NAD/500 μM 3-PG) and PHGDH_500_NAD/3-PG (500 μM NAD/500 μM 3-PG). In kind it is biochemical. The settings on record: 250 μM NAD/500 μM 3-PG; read-out: IC50 (PHGDH_HIGH_NAD/3-PG).
On to `COC(=O)CS(=O)(=O)c1ccc([C@@H](C)NC(=O)c2cc3c(Cl)c(Cl)c(C)cc3n2C)cc1` [Example 01-001, methyl 2-{4-[(1R)-1-[(4,5-dichloro-1,6-dimethyl-1H-indol-2-yl)formamido]ethyl]benzenesulfonyl}acetate], for which the IC50 amounted to 441 nM.

The next test relates to MDA-MB-468. As to the kind of experiment: 13C3 Serine Assay MDA-MB-468 (13C3 serine levels by LC/MS/MS). In kind it is cell-based. The note with it: Homo sapiens; MDA-MB-468 cells, 13C3 serine levels by LC/MS/MS; read-out: IC50 (13CSERINE).
Protocol: Cells are cultivated in Medium I in a 75 mL flask.
Day 1: 5000 cells in 180 μL Medium I/well were seeded into a 96-well plate. Plates were incubated at 37° C. in a 5% CO2 incubator overnight.
Day 2: 10 mM DMSO stock from test compounds were serially pre-diluted with Medium I (See dilution scheme: for the first well 20 μL DMSO stock are diluted with 180 μL Medium I. From this 1000 μM solution further seven 1:3 (1+2) dilution are prepared with Medium I). 20 μL of these pre-dilutions are transferred in duplicates to the 96-well plate of Day 1. After incubation at 37° C. in a CO2 incubator for 1 hour the medium was removed, 100 μL PBS (tempered to room temperature) added and subsequently removed again.
180 μL Medium II were then added per well and 20 μL of serial dilutions of test compounds in Medium II (as described before) were transferred per well as above. After 180 minutes incubation at 37° C. in a CO2 incubator the medium was again cautiously removed.
After the addition of 100 μL methanol: H2O (80:20, v:v, pre-cooled to −80° C.) the plates were sealed immediately and frozen at −80° C.
At day of measurement plates were thawn, centrifuged and the supernatant evaporated. The samples were resuspended in 100 μl water for tandem mass spectrometry.
^13C3 serine levels were analyzed with LC/MS/MS using Multiple Reaction Monitoring (MRM).
IC50 values were computed from these values using a 4 parametric logistic model.
For the molecule `COC(=O)CS(=O)(=O)c1ccc([C@@H](C)NC(=O)c2cc3c(Cl)c(Cl)c(C)cc3n2C)cc1` [Example 01-001, methyl 2-{4-[(1R)-1-[(4,5-dichloro-1,6-dimethyl-1H-indol-2-yl)formamido]ethyl]benzenesulfonyl}acetate], the IC50 was determined as 7 nM.

Turning to `Cc1cc(Cl)c2cc(C(=O)N[C@H](C)c3ccc(S(=O)(=O)CC(=O)CCC(=O)O)cc3)n(C)c2c1` [Example 15-003, 5-{4-[(1R)-1-[(4-chloro-1,6-dimethyl-1H-indol-2-yl)formamido]ethyl]benzenesulfonyl}-4-oxopentanoic acid], the IC50 was 9640 nM.

Regarding `CONC(=O)CS(=O)(=O)c1ccc([C@@H](C)NC(=O)c2cc(-c3ccc(F)cc3)nn2C)cc1` [Example 15-004, 3-(4-fluorophenyl)-N-[(1R)-1-{4-[(methoxycarbamoyl)methanesulfonyl]phenyl}ethyl]-1-methyl-1H-pyrazole-5-carboxamide], the IC50 is 6270 nM.

For the molecule `CCOC(=O)CS(=O)(=O)c1ccc([C@@H](C)NC(=O)c2cc(-n3ccc4ccccc43)nn2C)cc1` [Example 15-005, ethyl 2-{4-[(1R)-1-{[3-(1H-indol-1-yl)-1-methyl-1H-pyrazol-5-yl]formamido}ethyl]benzenesulfonyl}acetate], the IC50 was determined as 309 nM.

Regarding `Cc1cc(Cl)c2cc(C(=O)N[C@H](C)c3ccc(S(=O)(=O)C(C)(C)C(N)=O)cc3)n(C)c2c1` [Example 15-007, N-[(1R)-1-[4-(1-carbamoyl-1-methylethanesulfonyl)phenyl]ethyl]-4-chloro-1,6-dimethyl-1H-indole-2-carboxamide], the IC50 turned out to be 3220 nM.

`Cc1cc(Cl)c2cc(C(=O)N[C@H](C)c3ccc(S(=O)(=O)CC(=O)CS(=O)(=O)c4ccc([C@@H](C)NC(=O)c5cc6c(Cl)cc(C)cc6n5C)cc4)cc3)n(C)c2c1` [Example 15-008, 4-chloro-N-[(1R)-1-[4-(3-{4-[(1R)-1-[(4-chloro-1,6-dimethyl-1H-indol-2-yl)formamido]ethyl]benzenesulfonyl}-2-oxopropanesulfonyl)phenyl]ethyl]-1,6-dimethyl-1H-indole-2-carboxamide]: the IC50 was 11.9 nM.

Regarding `Cc1cc(Cl)c2cc(C(=O)N[C@H](C)c3ccc(S(=O)(=O)CC(=O)N(C)C)cc3)n(C)c2c1` [Example 15-009, 4-chloro-N-[(1R)-1-{4-[(dimethylcarbamoyl)methanesulfonyl]phenyl}ethyl]-1,6-dimethyl-1H-indole-2-carboxamide], the IC50 is 3390 nM.

With `CCOC(=O)CS(=O)(=O)c1ccc([C@@H](C)NC(=O)c2cc(-c3ccccc3)n(C)n2)cc1` [Example 15-010, ethyl 2-{4-[(1R)-1-[(1-methyl-5-phenyl-1H-pyrazol-3-yl)formamido]ethyl]benzenesulfonyl}acetate], the IC50 was determined as 1300 nM.

On to `Cc1cc(Cl)c2cc(C(=O)N[C@H](C)c3ccc(S(=O)(=O)CC(=O)OCCOC(=O)CS(=O)(=O)c4ccc([C@@H](C)NC(=O)c5cc6c(Cl)cc(C)cc6n5C)cc4)cc3)n(C)c2c1` [Example 15-011, 2-[(2-{4-[(1R)-1-[(4-chloro-1,6-dimethyl-1H-indol-2-yl)formamido]ethyl]benzenesulfonyl}acetyl)oxy]ethyl 2-{4-[(1R)-1-[(4-chloro-1,6-dimethyl-1H-indol-2-yl)formamido]ethyl]benzenesulfonyl}acetate], for which the IC50 worked out at 249 nM.

The test is the same for the next values; noted with them: MDA-MB-468 cells, 13C3 serine levels by LC/MS/MS; read-out: IC50 (13CSERINE).
With `CCOC(=O)CS(=O)(=O)c1ccc([C@@H](C)NC(=O)c2cc(-n3ncc4ccccc43)nn2C)cc1` [Example 15-006, ethyl 2-{4-[(1R)-1-{[3-(1H-indazol-1-yI)-1-methyl-1H-pyrazol-5-yl]formamido}ethyl]benzenesulfonyl}acetate], the IC50 is 73.3 nM.
